# Tested on: S. aureus 209 P
# Assay: Bactericidal properties of coated plastic samples
# Assay type: cell-based, Staphylococcus aureus
# Settings: for CFU/cm^2, Nylon: Nylon plastic
# Experimental: The plastic samples, which were 10 mm × 10 mm × 2 mm, were preliminary sterilized and placed into an ethanolic solution of 12a for 1 min. Then, the studied and control (without coating) samples were immersed in bacterial suspensions with a known concentration of bacteria (10^5–10^8 bacteria/mL) for 24 h, and the number of viable micro-organisms was then estimated.
# The plastic samples, which were 10 mm × 10 mm × 2 mm plates, were sterilized in a medical autoclave, HG-50 (Hirayama, Japan), at 121 °C for 20 min. Then, each sample was immersed in an ethanolic solution of compound 12a at concentrations of 0.01 and 0.001% for 1 min and air dried. After treatment, the plastic samples were placed in 24-well plates with 1 sample/well. Then, 1 mL of S. aureus 209 P suspension (10^5 bacteria/mL) was added to each well. The plastic control samples were not treated with compound 12a. The culture of Staphylococcus aureus 209 P was grown for a day at 37 °C in Mueller–Hinton Broth 2. Active daily growing cultures were diluted in physiological saline (NaCl 9.0 g/L) to a concentration of 10^5 bacteria/mL and then distributed into 25-well plates containing 1 cm^2 of coating/well, with the exception of an uncoated control well. After a 24-h incubation period at 37 °C, dilution series were performed for each treatment, and 100 μL volumes of 3 dilutions were plated on sterile Mueller–Hinton agar. After 24 h, the number of colonies on each plate was counted to obtain the corresponding concentration of live bacteria.
smiles,measurement,setting,value
"CCCCCCCCCCCC[P+](C(C)(C)C)(C(C)(C)C)C(C)(C)C [Compound 12a, tri-tert-butyl(n-dodecyl)phosphonium]",bacterial growth on coated plastic,"12a at a concentration of 0.01%, ABS, PLA natural and PETG plastics",complete absence of bacterial growth
same,"CFU/cm^2, ABS","ABS plastic, 12a 0.001%, 24 h incubation with 10^5 S. aureus 209 P",2.5 × 10^3 CFU/cm^2
same,"CFU/cm^2, Nylon","12a 0.001%, 24 h incubation with 10^5 S. aureus 209 P",3.2 × 10^4 CFU/cm^2
same,"CFU/cm^2, Nylon","12a 0.01%, 24 h incubation with 10^5 S. aureus 209 P",2.0 × 10^2 CFU/cm^2
same,"CFU/cm^2, PC+","PC+ plastic, 12a 0.001%, 24 h incubation with 10^5 S. aureus 209 P",1.2 × 10^4 CFU/cm^2
same,"CFU/cm^2, PETG","PETG plastic, 12a 0.001%, 24 h incubation with 10^5 S. aureus 209 P",1.8 × 10^3 CFU/cm^2
same,decrease of bacterial cell concentration compared to the control,"PETG, 12a 0.001%",27 times
same,"CFU/cm^2, PLA Natural","PLA Natural plastic, 12a 0.001%, 24 h incubation with 10^5 S. aureus 209 P",5.0 × 10^3 CFU/cm^2
same,"CFU/cm^2, PLA+","PLA+ plastic, 12a 0.001%, 24 h incubation with 10^5 S. aureus 209 P",1.6 × 10^4 CFU/cm^2

# From publication PMC8744835, “Sterically Hindered Quaternary Phosphonium Salts (QPSs): Antimicrobial Activity and Hemolytic and Cytotoxic Properties” (International Journal of Molecular Sciences, 2021)
